# Assay results taken from patent publication US20250008983A1, “COMPOSITIONS CONTAINING PEROXYACIDS TO CONTROL PATHOGEN GROWTH IN ANIMAL FEED AND RELATED METHODS” (KEMIN INDUSTRIES, INC., priority 2023, published 2025).
# Several values for one entry are separate records, joined by “and”; a condition that tells them apart may be missing. Equal values may be shown once. Marks after values point to notes of the source that are not given here.
# How the values were obtained:
# [1] = system: Escherichia coli ATCC 25922; test: Minimum inhibitory concentration (MIC), broth microdilution; format: cell-based
# Procedure: Materials and Methods. The assay was conducted to determine the minimum inhibitory concentration (MIC) of peroxy-acids against Escherichia coli ATCC 25922. E. coli was purchased from American Type Culture Collection (ATCC). The strain was stored at −80° C. in glycerol. Prior to usage, E. coli was revived by streaking a loopful of culture onto TSAYE (i.e., tryptone soya agar yeast extract (CM0131 and LP0021; Oxoid) prepared as per recommended by Oxoid) with overnight incubation at 37° C. An overnight culture of E. coli was diluted in TSBYE (i.e, tryptone soya broth yeast extract (CM0129; Oxoid) prepared as per recommended by Oxoid) to obtain a cell suspension of ca. 10^5 CFU/mL. Subsequently, 100 μL of the diluted culture was added to 100 μL of the test solutions at the needed concentrations into a microtiter plate (92096; TPP Techno Plastic Products AG). Peroxy-acids were tested at an active concentration of 25-1600 μg/mL. Subsequently, the inoculated plate was incubated at 37° C. up to 48 hours with the bacterial cell density recorded at optical density (OD) 600 nm at 24 hours interval using a microplate reader (Varioskan LUX; Thermo Fisher).
# [2] = system: cocktail of four freeze-dried salmonella strains; test: Peroxypropionic acid efficacy against Salmonella in swine feed; format: cell-based, Salmonella typhimurium, senftenberg, montevideo, enteritidis; settings: for Average CFU/g feed / Log CFU/g / Total CFU: 4 h; for Total counts in CFU at 4 h (n = 5): swine mash feed, PPA with sodium phosphate buffer (9:1), ~pH 7-8, five replicate cells
# Description: Swine mash feed contains a bigger particle size of corn-soy matrix compared to broiler mash feed. Thus, it could pose a challenge to expect the same antimicrobial efficacy as observed in broiler feed due to the shielding effect. Therefore, to maximize the efficacy of the peroxypropionic acid on the swine feed, an optimal droplet size of the peroxypropionic acid was required to ensure maximum distribution of the product onto the feed. Swine mash feed of 25 g was taken in five individual bags and inoculated with 10 mg cocktail of four freeze-dried salmonella strains of Salmonella typhimurium ATCC 14028, Salmonella senftenberg ATCC 43485, Salmonella montevideo ATCC 8387, and Salmonella enteritidis ATCC 13076 in such a way that the total infection in the feed was ˜2 logs. Then, the feed samples were treated with peroxypropionic acid solution (˜17% PPA, 7% H2O2) and sodium phosphate buffer premix (9:1 ratio) at 1.5 kg/T, 3 Kg/T, and 6 Kg/T. The feed was enumerated completely for Salmonella count using EB plates at 4 h after treatment. Two untreated controls, NC-A and NC-B were kept as negative controls to represent the infection in the feed.
# extracted Salmonella DNA = test: DNA interaction Assay 1: treatment added to extracted DNA directly; format: biochemical; settings: 1 kg/T; one hour at room temperature; n = 3
# Procedure: Method (Assay 1: Treatment added to extracted DNA directly). One mL of cell suspension (ca. 10^8 cfu/mL in TSBYE) was harvested by centrifugation at 5000 rcf for 10 minutes. The supernatant was discarded and resuspended as detailed in the protocol provided by the supplier. DNA was extracted using the QIAamp DNA Mini kit (Cat #51304, Qiagen). The samples were incubated at 56° C. for two hours and eluted with 200 uL of nuclease-free water. The same eluent was run through the column twice to increase the DNA concentration. Extracted DNA was quantified using Quant-iT dsDNA high-sensitivity assay kit (Q33120; Thermo Fischer Scientific). Extracted DNA was subsequently treated with the different treatment groups with a final concentration of 1 kg/T (prepared in 10 mM PBS). 1.5 uL of treatment solution (prepared at 10 times higher concentration) is added to 13.5 uL of extracted DNA. The solution was mixed well and left to stand at room temperature for one hour. After one hour, the solution was diluted with nuclease-free water 10 times. DNA was subsequently quantified using Quant-iT dsDNA high-sensitivity assay kit (Q33120; Thermo Fischer Scientific). Method (Assay 2: Treatment added to cells followed by extraction). […] Extracted DNA was quantified using Quant-iT dsDNA high-sensitivity assay kit (Q33120; Thermo Fischer Scientific). […]
# [3] = system: S. enteriditis ATCC 13076; test: Cell membrane permeability, crystal violet assay; format: cell-based, Salmonella enteriditis; settings: n = 3, two hours at 37° C., ~pH 7, listed as PPA
# Procedure: Method. Cell membrane permeability was determined through crystal violet assay where an alteration in the outer cell membrane will result in a higher uptake of the dye, indicating a greater membrane permeability. An overnight culture of S. enteriditis ATCC 13076 in TSBYE was harvested with centrifugation at 6700 rcf for five minutes at room temperature using Eppendorf Centrifuge 5810 R. Upon aspirating the TSBYE, the cell pellets were washed with phosphate-buffered saline (PBS, pH 7.4, 10 mM) twice and resuspended in PBS. Subsequently, 0.75 mL of the cell suspension was added to 0.75 mL of the treatment (prepared in 10 mM PBS) into a two-milliliters microcentrifuge tube and incubated for two hours at 37° C. with agitation at 150 rpm. Cells without any treatments served as the negative control. After two hours of incubation, the cells were again harvested with centrifugation at 6700 rcf for five mins. Subsequently, the cells were resuspended in 10 μg/mL of crystal violet solution prepared in PBS and incubated for another 15 minutes with agitation at 150 rpm. After incubation, the suspension was centrifuged at 13,000 rcf for 15 minutes. The absorbance of the supernatant in each tube was measured at 590 nm. The percentage of dye uptake was calculated based on the ratio of absorbance values (Equation 1).
compound,measurement,setting,value
"CCC(=O)OO [Perpropionic acid, perpropionic acid]",Minimum inhibitory concentration (μg/mL) against E. coli,"[1]; no increment in OD over 48 hours, 37° C.",500 µg/mL
same,MIC,[1]; preliminary results,500 ppm
same,Average CFU/g feed,[2]; 1.5 Kg/T,18 CFU/g feed
same,Log CFU/g,[2]; 1.5 Kg/T,1.26 Log CFU/g
same,Total CFU,[2]; 1.5 Kg/T,90 CFU
same,Average CFU/g feed,[2]; 3 Kg/T,0 CFU/g feed
same,Log CFU/g,[2]; 3 Kg/T,0.00 Log CFU/g
same,Total CFU,[2]; 3 Kg/T,0 CFU
same,Average CFU/g feed,[2]; 6 Kg/T,0 CFU/g feed
same,Log CFU/g,[2]; 6 Kg/T,0.00 Log CFU/g
same,Total CFU,[2]; 6 Kg/T,0 CFU
same,Total counts in CFU at 4 h (n = 5),"[2]; 1.5 Kg/T, listed as PPA",20 CFU and 10 CFU (2×) and 50 CFU and 0 CFU
same,Total counts in CFU at 4 h (n = 5),[2]; 3 Kg/T,0 CFU
same,Total counts in CFU at 4 h (n = 5),[2]; 6 Kg/T,0 CFU
same,"DNA concentration, Average ± SD, Assay 1",extracted Salmonella DNA,42.8 ± 2.9^b ng/uL
same,"Dye uptake, Average ± SD",[3]; 1 kg/T,67.32% and 67.32 ± 0.80^d %
same,"Dye uptake, Average ± SD",[3]; 2.5 kg/T,83.82% and 83.82 ± 0.78^e %
same,"Dye uptake, Average ± SD",[3]; 5 kg/T,88.27% and 88.27 ± 0.42^f %
